How the values were obtained:
p110δ = p110δ (Homo sapiens, UniProt O00329); test: ex-vivo PI3 kinase assay using recombinant PI3K; assay type: biochemical; conditions: ATP at Km
Experimental: (§1) CAL-130 is a derivative of IC87114 (Gilead Sciences, Foster City, CA), the synthesis of which has been previously described (Sadhu et al., 2003 and Sadhu et al., U.S. Pat. Nos. 6,518,277 and 6,667,300, which are incorporated by reference as if recited in full herein). […] values for CAL-130 inhibition of PI3K isoforms were determined in ex-vivo PI3 kinase assays using recombinant PI3K. A 10-point kinase inhibitory profile was determined with ATP at a concentration consistent with the Km for each enzyme (Puri et al., 2004).

p110γ = p110γ (Homo sapiens, UniProt P48736); test: ex-vivo PI3 kinase assay using recombinant PI3K; assay type: biochemical; conditions: ATP at Km
Experimental: as §1

p110α = p110α (Homo sapiens, UniProt P42336); test: ex-vivo PI3 kinase assay using recombinant PI3K; assay type: biochemical; conditions: ATP at Km
Experimental: as §1

BIKE = target: T1, BIKE (Homo sapiens, UniProt Q9NSY1); test: Ambit KinomeScan screening; assay type: binding; conditions: CAL-130 10 μM
T1 construct: purchased Ambit (KinomeScan screening service)
Experimental: (§2) CAL-130 (10 μM) was evaluated for its ability to prevent tagged kinases from interacting with immobilized “bait” ligand (Karaman et al., 2008). Results are reported as “% of control binding”, where lower numbers indicate stronger interactions with the tagged kinase. Values of >35% are considered “no hits”. PI3Kδ had the lowest percentage of control binding at 0.2% followed by PI3Kγ at 3.2% (See Table 1 below). These values indicate a high probability of a potent interaction. 353 kinases were assessed in the screen (Table 2).

PRKCQ = target: T2, PRKCQ (Homo sapiens, UniProt Q04759); test: Ambit KinomeScan screening; assay type: binding; conditions: CAL-130 10 μM
T2 construct: purchased Ambit (KinomeScan screening service)
Experimental: as §2

RIOK2 = target: T3, RIOK2 (Homo sapiens, UniProt Q9BVS4); test: Ambit KinomeScan screening; assay type: binding; conditions: CAL-130 10 μM
T3 construct: unspecified tag (tagged kinase); purchased Ambit (KinomeScan screening)
Experimental: as §2

ERBB3 = target: T4, ERBB3 (Homo sapiens, UniProt P21860); test: Ambit KinomeScan screening; assay type: binding; conditions: CAL-130 10 μM
T4 construct: unspecified tag ("tagged kinases"); purchased Ambit (KinomeScan screening service)
Experimental: as §2

ROCK2 = target: T5, ROCK2 (Homo sapiens, UniProt O75116); test: Ambit KinomeScan screening; assay type: binding; conditions: CAL-130 10 μM
T5 construct: unspecified tag (tagged kinase); purchased Ambit (KinomeScan screening)
Experimental: as §2

MET(M1250T) = target: T6, MET(M1250T) (Homo sapiens, UniProt P08581, M1250T); test: Ambit KinomeScan screening; assay type: binding; conditions: CAL-130 10 μM
T6 construct: purchased Ambit (KinomeScan screening)
Experimental: as §2

RPS6KA5 = target: T7, RPS6KA5 (Homo sapiens, UniProt O75582); test: Ambit KinomeScan screening; assay type: binding; conditions: CAL-130 10 μM
T7 construct: tag, kind not specified; purchased Ambit (KinomeScan screening service)
Experimental: as §2

DDR1 = target: T8, DDR1 (Homo sapiens, UniProt Q08345); test: Ambit KinomeScan screening; assay type: binding; conditions: CAL-130 10 μM
T8 construct: unspecified tag ("tagged kinases"); purchased Ambit (KinomeScan screening service)
Experimental: as §2

NIM1 = target: T9, NIM1 (Homo sapiens, UniProt Q8IY84); test: Ambit KinomeScan screening; assay type: binding; conditions: CAL-130 10 μM
T9 construct: purchased Ambit (KinomeScan screening service)
Experimental: as §2

ULK2 = target: T10, ULK2 (Homo sapiens, UniProt Q8IYT8); test: Ambit KinomeScan screening; assay type: binding; conditions: CAL-130 10 μM
T10 construct: tag, kind not specified; purchased Ambit (KinomeScan screening service)
Experimental: as §2

AURKA = target: T11, AURKA (Homo sapiens, UniProt O14965); test: Ambit KinomeScan screening; assay type: binding; conditions: CAL-130 10 μM
T11 construct: purchased Ambit (KinomeScan screening service)
Experimental: as §2

ERK3 = target: T12, ERK3 (Homo sapiens, UniProt Q16659); test: Ambit KinomeScan screening; assay type: binding; conditions: CAL-130 10 μM
T12 construct: unspecified tag ("tagged kinases"); purchased Ambit (KinomeScan screening service)
Experimental: as §2

RIPK1 = target: T13, RIPK1 (Homo sapiens, UniProt Q13546); test: Ambit KinomeScan screening; assay type: binding; conditions: CAL-130 10 μM
T13 construct: unspecified tag (tagged kinase); purchased Ambit (KinomeScan screening)
Experimental: as §2

PHKG1 = target: T14, PHKG1 (Homo sapiens, UniProt Q16816); test: Ambit KinomeScan screening; assay type: binding; conditions: CAL-130 10 μM
T14 construct: unspecified tag ('tagged kinases'); purchased Ambit (KinomeScan screening)
Experimental: as §2

PKMYT1 = target: T15, PKMYT1 (Homo sapiens, UniProt Q99640); test: Ambit KinomeScan screening; assay type: binding; conditions: CAL-130 10 μM
T15 construct: purchased Ambit (KinomeScan screening service)
Experimental: as §2

LKB1 = target: T16, LKB1 (Homo sapiens, UniProt Q15831); test: Ambit KinomeScan screening; assay type: binding; conditions: CAL-130 10 μM
T16 construct: unspecified tag ('tagged kinases'); purchased Ambit (KinomeScan screening service)
Experimental: as §2

ULK3 = target: T17, ULK3 (Homo sapiens, UniProt Q6PHR2); test: Ambit KinomeScan screening; assay type: binding; conditions: CAL-130 10 μM
T17 construct: tag, kind not specified; purchased Ambit (KinomeScan screening service)
Experimental: as §2

GAK = target: T18, GAK (Homo sapiens, UniProt O14976); test: Ambit KinomeScan screening; assay type: binding; conditions: CAL-130 10 μM
T18 construct: unspecified tag ('tagged kinases'); purchased Ambit (KinomeScan screening service)
Experimental: as §2

GCN2(S808G) = target: T19, GCN2(S808G) (Homo sapiens, UniProt Q9P2K8, S808G); test: Ambit KinomeScan screening; assay type: binding; conditions: CAL-130 10 μM
T19 construct: unspecified tag ('tagged kinases'); purchased Ambit (KinomeScan screening service)
Experimental: as §2

CDKL2 = target: T20, CDKL2 (Homo sapiens, UniProt Q92772); test: Ambit KinomeScan screening; assay type: binding; conditions: CAL-130 10 μM
T20 construct: purchased Ambit (KinomeScan screening service)
Experimental: as §2

EGFR(L861Q) = target: T21, EGFR(L861Q) (Homo sapiens, UniProt P00533, L861Q); test: Ambit KinomeScan screening; assay type: binding; conditions: CAL-130 10 μM
T21 construct: unspecified tag; purchased Ambit (KinomeScan screening service)
Experimental: as §2

EPHB3 = target: T22, EPHB3 (Homo sapiens, UniProt P54753); test: Ambit KinomeScan screening; assay type: binding; conditions: CAL-130 10 μM
T22 construct: purchased Ambit (KinomeScan screening service)
Experimental: as §2

EPHB2 = target: T23, EPHB2 (Homo sapiens, UniProt P29323); test: Ambit KinomeScan screening; assay type: binding; conditions: CAL-130 10 μM
T23 construct: purchased Ambit (KinomeScan screening service)
Experimental: as §2

FLT3(ITD) = test: Ambit KinomeScan screening; assay type: binding; conditions: CAL-130 10 μM
Experimental: as §2

TNK2 = target: T24, TNK2 (Homo sapiens, UniProt Q07912); test: Ambit KinomeScan screening; assay type: binding; conditions: CAL-130 10 μM
T24 construct: unspecified tag (tagged kinase); purchased Ambit (KinomeScan screening)
Experimental: as §2

RET(M918T) = target: T25, RET(M918T) (Homo sapiens, UniProt P07949, M918T); test: Ambit KinomeScan screening; assay type: binding; conditions: CAL-130 10 μM
T25 construct: tag (kind not specified); purchased Ambit (KinomeScan screening service)
Experimental: as §2

CSNK1A1L = target: T26, CSNK1A1L (Homo sapiens, UniProt Q8N752); test: Ambit KinomeScan screening; assay type: binding; conditions: CAL-130 10 μM
T26 construct: purchased Ambit (KinomeScan screening service)
Experimental: as §2

MST3 = target: T27, MST3 (Homo sapiens, UniProt Q9Y6E0); test: Ambit KinomeScan screening; assay type: binding; conditions: CAL-130 10 μM
T27 construct: unspecified tag; purchased Ambit (KinomeScan screening panel)
Experimental: as §2

PRKG1 = target: T28, PRKG1 (Homo sapiens, UniProt Q13976); test: Ambit KinomeScan screening; assay type: binding; conditions: CAL-130 10 μM
T28 construct: tag (kind not specified); purchased Ambit (KinomeScan screening service)
Experimental: as §2

IRAK3 = target: T29, IRAK3 (Homo sapiens, UniProt Q9Y616); test: Ambit KinomeScan screening; assay type: binding; conditions: CAL-130 10 μM
T29 construct: purchased Ambit (KinomeScan screening)
Experimental: as §2

T11 sequence (O14965 whole entry): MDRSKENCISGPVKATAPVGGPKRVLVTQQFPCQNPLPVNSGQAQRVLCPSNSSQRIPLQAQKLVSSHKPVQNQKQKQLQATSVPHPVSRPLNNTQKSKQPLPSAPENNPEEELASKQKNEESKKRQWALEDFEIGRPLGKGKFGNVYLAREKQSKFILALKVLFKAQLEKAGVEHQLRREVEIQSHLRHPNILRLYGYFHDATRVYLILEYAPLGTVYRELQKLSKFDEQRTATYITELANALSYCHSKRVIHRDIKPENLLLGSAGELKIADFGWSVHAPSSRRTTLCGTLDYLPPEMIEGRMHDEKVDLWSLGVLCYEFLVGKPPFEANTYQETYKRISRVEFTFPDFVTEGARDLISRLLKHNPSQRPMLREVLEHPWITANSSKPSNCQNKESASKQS
Chain of p110δ (O00329 whole entry, species assumed, canonical isoform): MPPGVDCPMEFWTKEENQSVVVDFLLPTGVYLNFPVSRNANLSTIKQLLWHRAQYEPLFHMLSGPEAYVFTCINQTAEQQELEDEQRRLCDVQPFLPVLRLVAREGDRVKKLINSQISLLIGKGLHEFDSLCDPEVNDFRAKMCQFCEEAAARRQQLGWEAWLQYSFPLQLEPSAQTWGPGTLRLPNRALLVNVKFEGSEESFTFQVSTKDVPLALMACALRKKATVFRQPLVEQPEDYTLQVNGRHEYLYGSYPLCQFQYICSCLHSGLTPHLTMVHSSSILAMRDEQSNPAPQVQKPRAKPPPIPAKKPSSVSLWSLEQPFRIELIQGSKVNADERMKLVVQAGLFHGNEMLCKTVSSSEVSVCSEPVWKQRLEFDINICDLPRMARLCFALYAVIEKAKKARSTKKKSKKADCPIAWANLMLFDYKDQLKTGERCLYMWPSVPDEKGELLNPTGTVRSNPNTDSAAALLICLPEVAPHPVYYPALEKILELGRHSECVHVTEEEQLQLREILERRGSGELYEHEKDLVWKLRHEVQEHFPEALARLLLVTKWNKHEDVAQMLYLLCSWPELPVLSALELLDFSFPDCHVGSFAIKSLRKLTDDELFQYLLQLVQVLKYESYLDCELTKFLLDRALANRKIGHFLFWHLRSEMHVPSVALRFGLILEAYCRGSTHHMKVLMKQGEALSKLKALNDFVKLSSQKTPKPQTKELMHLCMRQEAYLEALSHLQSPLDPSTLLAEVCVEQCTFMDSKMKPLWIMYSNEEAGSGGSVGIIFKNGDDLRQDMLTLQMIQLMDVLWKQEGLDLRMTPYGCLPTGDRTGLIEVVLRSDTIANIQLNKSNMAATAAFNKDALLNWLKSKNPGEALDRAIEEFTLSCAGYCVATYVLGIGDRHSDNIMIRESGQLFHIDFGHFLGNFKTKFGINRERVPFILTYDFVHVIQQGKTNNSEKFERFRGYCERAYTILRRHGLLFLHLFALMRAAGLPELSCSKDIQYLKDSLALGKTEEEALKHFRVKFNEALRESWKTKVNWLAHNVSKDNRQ
Chain of p110δ (P27986 whole entry partner, species assumed, canonical isoform): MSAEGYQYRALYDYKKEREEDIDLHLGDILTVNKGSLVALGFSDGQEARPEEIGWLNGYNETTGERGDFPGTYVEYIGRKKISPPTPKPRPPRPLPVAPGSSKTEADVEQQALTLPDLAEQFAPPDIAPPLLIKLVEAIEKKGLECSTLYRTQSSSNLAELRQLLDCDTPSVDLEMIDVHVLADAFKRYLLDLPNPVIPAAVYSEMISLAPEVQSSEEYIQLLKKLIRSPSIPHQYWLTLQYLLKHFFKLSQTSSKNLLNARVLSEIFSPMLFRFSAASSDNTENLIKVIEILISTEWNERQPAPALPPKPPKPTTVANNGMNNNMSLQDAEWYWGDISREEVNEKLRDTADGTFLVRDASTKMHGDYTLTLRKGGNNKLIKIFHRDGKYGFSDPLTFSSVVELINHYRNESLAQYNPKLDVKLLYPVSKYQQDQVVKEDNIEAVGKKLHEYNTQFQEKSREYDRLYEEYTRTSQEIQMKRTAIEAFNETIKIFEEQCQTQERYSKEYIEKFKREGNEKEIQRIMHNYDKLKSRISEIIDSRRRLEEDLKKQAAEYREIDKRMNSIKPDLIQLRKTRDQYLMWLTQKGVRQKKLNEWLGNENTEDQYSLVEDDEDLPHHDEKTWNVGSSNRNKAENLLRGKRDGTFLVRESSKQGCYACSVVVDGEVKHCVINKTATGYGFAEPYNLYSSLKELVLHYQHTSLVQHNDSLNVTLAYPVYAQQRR
Chain of p110γ (P48736 whole entry, species assumed): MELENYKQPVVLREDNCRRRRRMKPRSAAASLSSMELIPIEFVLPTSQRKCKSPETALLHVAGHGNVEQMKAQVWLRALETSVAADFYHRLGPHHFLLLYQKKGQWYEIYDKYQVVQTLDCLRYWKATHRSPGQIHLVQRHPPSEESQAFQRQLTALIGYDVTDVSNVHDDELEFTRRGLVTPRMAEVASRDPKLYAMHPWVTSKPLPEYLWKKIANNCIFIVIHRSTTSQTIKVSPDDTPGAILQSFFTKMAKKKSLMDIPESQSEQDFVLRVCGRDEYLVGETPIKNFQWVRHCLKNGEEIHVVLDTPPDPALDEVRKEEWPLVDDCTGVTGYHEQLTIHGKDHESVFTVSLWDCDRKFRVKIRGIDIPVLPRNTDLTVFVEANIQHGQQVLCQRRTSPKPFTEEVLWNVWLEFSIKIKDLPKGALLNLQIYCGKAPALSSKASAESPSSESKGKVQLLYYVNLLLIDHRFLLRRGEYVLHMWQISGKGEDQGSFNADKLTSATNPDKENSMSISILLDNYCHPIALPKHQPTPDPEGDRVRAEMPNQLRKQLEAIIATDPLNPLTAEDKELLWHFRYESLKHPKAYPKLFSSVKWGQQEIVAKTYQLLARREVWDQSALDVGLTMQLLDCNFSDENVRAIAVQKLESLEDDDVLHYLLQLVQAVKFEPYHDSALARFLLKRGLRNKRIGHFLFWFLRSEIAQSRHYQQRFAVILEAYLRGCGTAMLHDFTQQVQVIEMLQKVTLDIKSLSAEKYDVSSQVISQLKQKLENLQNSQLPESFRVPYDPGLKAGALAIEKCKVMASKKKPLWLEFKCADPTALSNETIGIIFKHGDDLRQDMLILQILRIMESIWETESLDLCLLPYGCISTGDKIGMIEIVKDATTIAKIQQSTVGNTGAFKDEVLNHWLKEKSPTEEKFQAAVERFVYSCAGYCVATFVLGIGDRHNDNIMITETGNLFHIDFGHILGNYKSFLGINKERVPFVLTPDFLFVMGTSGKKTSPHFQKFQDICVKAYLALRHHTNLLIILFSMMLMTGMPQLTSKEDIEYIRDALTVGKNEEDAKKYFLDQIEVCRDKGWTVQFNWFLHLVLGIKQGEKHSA
T18 sequence (O14976 whole entry): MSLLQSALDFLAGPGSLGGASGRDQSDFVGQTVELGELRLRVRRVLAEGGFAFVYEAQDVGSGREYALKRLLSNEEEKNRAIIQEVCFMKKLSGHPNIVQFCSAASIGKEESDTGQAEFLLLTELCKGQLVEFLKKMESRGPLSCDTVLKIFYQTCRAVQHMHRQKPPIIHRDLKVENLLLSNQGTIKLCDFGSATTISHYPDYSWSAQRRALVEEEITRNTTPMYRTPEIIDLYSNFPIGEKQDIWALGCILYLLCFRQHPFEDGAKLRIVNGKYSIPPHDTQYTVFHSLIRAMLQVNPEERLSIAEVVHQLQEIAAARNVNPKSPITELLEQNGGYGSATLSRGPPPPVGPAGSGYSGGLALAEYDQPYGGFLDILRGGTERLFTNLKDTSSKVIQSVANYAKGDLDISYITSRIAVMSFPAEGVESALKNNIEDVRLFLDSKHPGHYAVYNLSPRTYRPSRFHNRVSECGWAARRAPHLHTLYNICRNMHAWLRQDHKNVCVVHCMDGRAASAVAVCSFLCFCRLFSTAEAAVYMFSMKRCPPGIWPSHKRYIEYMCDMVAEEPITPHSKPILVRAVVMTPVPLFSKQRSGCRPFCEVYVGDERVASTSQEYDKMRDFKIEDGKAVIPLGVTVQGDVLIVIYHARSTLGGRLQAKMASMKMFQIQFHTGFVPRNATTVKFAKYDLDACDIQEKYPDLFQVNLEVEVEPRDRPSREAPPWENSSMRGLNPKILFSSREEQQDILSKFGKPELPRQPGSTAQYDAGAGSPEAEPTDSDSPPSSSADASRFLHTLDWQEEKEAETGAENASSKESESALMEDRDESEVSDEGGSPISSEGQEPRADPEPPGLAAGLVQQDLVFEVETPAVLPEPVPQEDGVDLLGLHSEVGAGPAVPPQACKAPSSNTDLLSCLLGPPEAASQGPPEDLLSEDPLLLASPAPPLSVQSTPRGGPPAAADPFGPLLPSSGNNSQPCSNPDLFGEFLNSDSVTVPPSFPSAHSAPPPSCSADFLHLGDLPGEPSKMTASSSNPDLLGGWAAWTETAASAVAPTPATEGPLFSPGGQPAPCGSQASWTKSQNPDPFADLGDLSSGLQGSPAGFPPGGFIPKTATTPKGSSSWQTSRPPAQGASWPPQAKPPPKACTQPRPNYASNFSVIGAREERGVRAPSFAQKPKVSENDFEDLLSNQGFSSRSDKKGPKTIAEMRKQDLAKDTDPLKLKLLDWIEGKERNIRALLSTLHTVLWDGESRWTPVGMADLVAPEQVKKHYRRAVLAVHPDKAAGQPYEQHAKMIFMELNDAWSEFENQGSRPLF
T15 sequence (Q99640 whole entry): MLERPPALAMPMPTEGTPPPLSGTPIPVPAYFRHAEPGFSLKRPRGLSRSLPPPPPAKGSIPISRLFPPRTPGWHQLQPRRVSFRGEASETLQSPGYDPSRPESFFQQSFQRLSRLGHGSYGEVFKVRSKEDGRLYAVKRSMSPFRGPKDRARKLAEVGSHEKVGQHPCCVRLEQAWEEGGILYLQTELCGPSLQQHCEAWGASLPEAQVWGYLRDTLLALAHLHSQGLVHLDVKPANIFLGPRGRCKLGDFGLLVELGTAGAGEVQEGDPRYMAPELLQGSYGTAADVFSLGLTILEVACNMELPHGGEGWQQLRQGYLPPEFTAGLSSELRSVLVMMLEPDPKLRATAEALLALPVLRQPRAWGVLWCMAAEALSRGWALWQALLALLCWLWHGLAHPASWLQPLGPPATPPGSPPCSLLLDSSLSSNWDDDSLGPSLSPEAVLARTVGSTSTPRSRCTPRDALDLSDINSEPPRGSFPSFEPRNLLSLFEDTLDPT

With `Cc1ccccc1-n1c(C(C)Nc2nc(N)nc3nc[nH]c23)nc2cccc(C)c2c1=O` (stereo not drawn) [CAL-130] the IC50 (p110δ) was 1.3 nM, the IC50 (p110γ) was 6.1 nM and the IC50 (p110α) was 115 nM. The “Percent of Control Binding” value (BIKE) was 100%, the “Percent of Control Binding” value (PRKCQ) was 100% and the “Percent of Control Binding” value (RIOK2) was 100%. For the same molecule, the “Percent of Control Binding” value (ERBB3) was 100%, the “Percent of Control Binding” value (ROCK2) was 100% and the “Percent of Control Binding” value (MET(M1250T)) was 100%. The “Percent of Control Binding” value (RPS6KA5) was 100%, the “Percent of Control Binding” value (DDR1) was 100% and the “Percent of Control Binding” value (NIM1) was 100%. The “Percent of Control Binding” value (ULK2) was 100%, the “Percent of Control Binding” value (AURKA) was 100% and the “Percent of Control Binding” value (ERK3) was 100%. For the same molecule, the “Percent of Control Binding” value (RIPK1) was 100%, the “Percent of Control Binding” value (PHKG1) was 100% and the “Percent of Control Binding” value (PKMYT1) was 100%. The “Percent of Control Binding” value (LKB1) was 100%, the “Percent of Control Binding” value (ULK3) was 100% and the “Percent of Control Binding” value (GAK) was 100%. For the same molecule, the “Percent of Control Binding” value (GCN2(S808G)) was 100%, the “Percent of Control Binding” value (CDKL2) was 100% and the “Percent of Control Binding” value (EGFR(L861Q)) was 100%. The “Percent of Control Binding” value (EPHB3) was 100%, the “Percent of Control Binding” value (EPHB2) was 100% and the “Percent of Control Binding” value (FLT3(ITD)) was 100%. For the same molecule, the “Percent of Control Binding” value (TNK2) was 100%, the “Percent of Control Binding” value (RET(M918T)) was 100% and the “Percent of Control Binding” value (CSNK1A1L) was 100%. For the same molecule, the “Percent of Control Binding” value (MST3) was 100%, the “Percent of Control Binding” value (PRKG1) was 100% and the “Percent of Control Binding” value (IRAK3) was 100%.

Source: patent publication US11969428B2, “Methods and pharmaceutical compositions for treating lymphoid malignancy” (priority 2011, dated 2024)
